Data published in article PMC11219871, “Epigenetic-based differentiation therapy for Acute Myeloid Leukemia” (Nature Communications, 2024).
Where two headings read alike, the source gives them in different places.

Tests used:
[1] = system: HL-60; assay: RNA-seq; type: cell-based, human; settings: for ABI1 Log2FC / CBFB Log2FC / CCR2 Log2FC / CD44 Log2FC / CDK6 Log2FC / CEBPB Log2FC / CSF3R Log2FC / CTNNBIP1 Log2FC / ELANE Log2FC / EP300 Log2FC / FLI1 Log2FC / FUT4 Log2FC / GATA2 Log2FC / HCLS1 Log2FC / ITGA4 Log2FC / ITGAM Log2FC / ITGB1 Log2FC / ITGB2 Log2FC / JUN Log2FC / MPO Log2FC / MYC Log2FC / NFE2 Log2FC / PIR Log2FC / RUNX1 Log2FC / SOX4 Log2FC / SPI1 Log2FC / TESC Log2FC / TRIB1 Log2FC / ZBTB46 Log2FC / ZFP36L1 Log2FC: HL-60, RNA-Seq
Method: (§1) Transcriptomic analyses were performed following low-input 3′ end RNA sequencing approximation for characterization of transcriptional changes in ML-2 and HL-60 samples treated with CM-444 and CM-1758.
(§2) Low-input 3′ end RNA-seq was performed as previously described[53],[54] with minor modifications. Briefly, RNA from 0.1 ×10^6 cells from each experimental condition was purified using a Dynabeads mRNA DIRECT Purification Kit (Thermo Fisher Scientific). For barcoded cDNA generation, polyadenylated RNA was retrotranscribed using an Affinity Script cDNA Synthesis Kit (Agilent Technologies), and barcoded primers also harboring T7 promoter and a partial Read2 sequence for illumine sequencing (CGATTGAGGCCGGTAATACGACTCACTATAGGGGGCGACGTGTGCTCTTCCGATCTXXXXXXNNNNTTTTTTTTTTTTTTTTTTTT, where XXXXXX is the cell barcode and NNN is a unique molecular identifier or UMI, which represents the same initial RNA molecule for future quantification). At this point, the samples were pooled (≤6 samples per pool) at equimolar ratios assessed by q-PCR.
(§3) The samples were then treated with Exonuclease I (Thermo Fisher Scientific following a 1.2x positive SPRI-selection. Second-strand cDNA synthesis was then performed using a NEBNext Ultra II Directional RNA Second-Strand Synthesis Module (New England Biolabs) for 2 h at 16 °C, followed by a 1.4x positive solid-phase reverse immobilization (SPRI) cleanup. The samples were linearly amplified by T7 in vitro transcription using a T7 RNA Polymerase (New England Biolabs) for 16 h at 37 °C. After DNAse treatment (TURBO DNAse I, Thermo Fisher Scientific) for 15 min at 37 °C to remove dsDNA, samples were cleaned with a positive 1.2x SPRI-selection. RNA size, quality, and concentration were determined by analysis with a Qubit Fluorometer (Termo Fisher Scientific) and TapeStation (Agilent 4200 TapeSation System, Agilent Technologies). If necessary, RNA was fragmented in 200- to 300-bp fragments using Zn2+divalent cations followed by a 2x positive SPRI cleanup. Fragmented RNA was dephosphorylated using FastAP Thermosensitive Alkaline Phosphatase (Thermo Fisher Scientific) for 10 min at 37 °C to enhance RNA ligation yield. In this step, a partial Read1 ([…]) sequence for illumine sequencing was ligated to the 3′ end of the fragmented RNA using T4 RNA Ligase I (New England Biolabs). After a 1.5x positive SPRI cleanup, the RNA product was retrotranscribed using an Affinity Script cDNA Synthesis Kit (Agilent Technologies) and a specific retrotranscription primer ([…]). The library was then purified by 1.5x positive SPRI cleanup, and the yield of the previous steps was determined by q-PCR. Finally, PCR using KAPA HiFi HotStar Ready Mix (Kapa Biosystems) was performed for second-strand cDNA synthesis, illumine primers addition (Read1-P5: […] and Read2-P7: […]) and library amplification using the recommended cycle numbers to minimize over-amplification. The product was purified by a 0.7x positive SPRI cleanup. The quality of the final library was determined by q-PCR (based on the threshold cycle, or Ct, obtained for GAPDH (Fw: […], Rv: […]) or GUSB (Fw: […], Rv: […]) housekeeping genes calibrated per individual set of samples, Qubit Fluorometer (Thermo Fisher Scientific) and TapeStation (Agilent 4200 TapeStation System, Agilent Technologies). All libraries were pooled at equimolar ratios and sequenced on a NextSeq500 (Illumina) using 60 bp single-end reads at a minimum sequence depth of 10 million reads per sample.
(§4) Raw reads were demultiplexed using bcl2fastq2 Conversion Software v2.19 (Illumina) to convert base call (BCL) files into FastQ files. The quality control of FastQ files was performed using FastQC (Bioinformatics Babraham Institute). Sequencing reads were aligned to hg19 human reference using Bowtie 2 (Johns Hopkins University) and quantified using quant3p script (github.com/ctlab/quant3p). […]

[2] = system: ML-2; assay: RNA-seq; type: cell-based, human; settings: for ABI1 Log2FC / CBFB Log2FC / CCR2 Log2FC / CD44 Log2FC / CDK6 Log2FC / CEBPB Log2FC / CSF3R Log2FC / CTNNBIP1 Log2FC / ELANE Log2FC / EP300 Log2FC / FLI1 Log2FC / FUT4 Log2FC / GATA2 Log2FC / HCLS1 Log2FC / ITGA4 Log2FC / ITGAM Log2FC / ITGB1 Log2FC / ITGB2 Log2FC / JUN Log2FC / MPO Log2FC / MYC Log2FC / NFE2 Log2FC / PIR Log2FC / RUNX1 Log2FC / SOX4 Log2FC / SPI1 Log2FC / TESC Log2FC / TRIB1 Log2FC / ZBTB46 Log2FC / ZFP36L1 Log2FC: ML-2, RNA-Seq
Method: as §1, §2, §3, §4

[3] = HL-60, 25% GI50, 12 h, log2FC +/-1
[4] = ML-2, 25% GI50, 12 h, log2FC +/-1

## COc1cc2nc(-c3ccc(C)o3)cc(NCC3CCN(c4ncc(C(=O)NO)cn4)CC3)c2cc1OC [CM-444, 2-[4-[[[6,7-dimethoxy-2-(5-methyl-2-furyl)-4-quinolyl]amino]methyl]-1-piperidyl]pyrimidine-5-carbohydroxamic acid]
[1]
  deregulated genes (RNA-seq): 227
  down-regulated genes (RNA-seq): 39
  up-regulated genes (RNA-seq): 188
  ABI1 Log2FC: -0.1754
  CBFB Log2FC: -0.0298
  CCR2 Log2FC: 0.967
  CD44 Log2FC: -0.2341
  CDK6 Log2FC: 0.2817
  CEBPB Log2FC: -0.1067
  CSF3R Log2FC: 0.0126
  CTNNBIP1 Log2FC: 0.7431
  ELANE Log2FC: -2.007
  EP300 Log2FC: -0.2558
  FLI1 Log2FC: -0.04836
  FUT4 Log2FC: -0.2495
  GATA2 Log2FC: -0.2076
  HCLS1 Log2FC: -0.2476
  ITGA4 Log2FC: -0.309
  ITGAM Log2FC: 0.9545
  ITGB1 Log2FC: 0.4474
  ITGB2 Log2FC: -0.1397
  JUN Log2FC: 0.8212
  MPO Log2FC: -0.2249
  MYC Log2FC: -0.2011
  NFE2 Log2FC: -0.621
  PIR Log2FC: 0.9082
  RUNX1 Log2FC: -0.1954
  SOX4 Log2FC: 0.2596
  SPI1 Log2FC: -0.5566
  TESC Log2FC: 0.05581
  TRIB1 Log2FC: 0.02008
  ZBTB46 Log2FC: 0.2361
  ZFP36L1 Log2FC: 0.9631
[1]; [3]
  deregulated genes (RNA-seq): 136
  down-regulated genes (RNA-seq): 3
  up-regulated genes (RNA-seq): 133
[2]
  deregulated genes (RNA-seq): 558
  down-regulated genes (RNA-seq): 88
  up-regulated genes (RNA-seq): 470
  ABI1 Log2FC: 0.61
  CBFB Log2FC: 0.4078
  CCR2 Log2FC: 0.3405
  CD44 Log2FC: 0.2468
  CDK6 Log2FC: -0.3705
  CEBPB Log2FC: 0.009186
  CSF3R Log2FC: -0.2226
  CTNNBIP1 Log2FC: 0.1064
  ELANE Log2FC: -0.8925
  EP300 Log2FC: 0.282
  FLI1 Log2FC: 0.279
  FUT4 Log2FC: -0.09706
  GATA2 Log2FC: 1.078
  HCLS1 Log2FC: 0.03361
  ITGA4 Log2FC: -0.1245
  ITGAM Log2FC: 1.391
  ITGB1 Log2FC: 0.4551
  ITGB2 Log2FC: -0.139
  JUN Log2FC: 1.102
  MPO Log2FC: -1.303
  MYC Log2FC: -0.4866
  NFE2 Log2FC: 0.3613
  PIR Log2FC: 1.319
  RUNX1 Log2FC: -0.08636
  SOX4 Log2FC: 0.2683
  SPI1 Log2FC: 0.1755
  TESC Log2FC: 0.4308
  TRIB1 Log2FC: -0.2715
  ZBTB46 Log2FC: -0.2139
  ZFP36L1 Log2FC: 2.504
[2]; [4]
  deregulated genes (RNA-seq): 460
  down-regulated genes (RNA-seq): 44
  up-regulated genes (RNA-seq): 416

## COc1cc2nc(-c3cc(C)oc3C)cc(NCC3CCN(c4ncc(C(=O)NO)cn4)CC3)c2cc1OC [CM-1758, 2-[4-[[[2-(2,5-dimethyl-3-furyl)-6,7-dimethoxy-4-quinolyl]amino]methyl] -1-piperidyl]pyrimidine-5-carbohydroxamic acid]
[1]
  deregulated genes (RNA-seq): 3299
  down-regulated genes (RNA-seq): 1610
  up-regulated genes (RNA-seq): 1589
  ABI1 Log2FC: 0.03309
  CBFB Log2FC: -0.1665
  CCR2 Log2FC: 0.8564
  CD44 Log2FC: -0.4326
  CDK6 Log2FC: 0.05972
  CEBPB Log2FC: 0.4359
  CSF3R Log2FC: 0.06074
  CTNNBIP1 Log2FC: 1.186
  ELANE Log2FC: -1.7362
  EP300 Log2FC: -0.1778
  FLI1 Log2FC: -0.2831
  FUT4 Log2FC: -1.407
  GATA2 Log2FC: 0.09944
  HCLS1 Log2FC: -0.1237
  ITGA4 Log2FC: -1.197
  ITGAM Log2FC: 2.404
  ITGB1 Log2FC: 0.9626
  ITGB2 Log2FC: 0.07825
  JUN Log2FC: 0.9774
  MPO Log2FC: -2.297
  MYC Log2FC: -2.139
  NFE2 Log2FC: -0.3801
  PIR Log2FC: 1.629
  RUNX1 Log2FC: -0.01075
  SOX4 Log2FC: 0.2112
  SPI1 Log2FC: -0.6241
  TESC Log2FC: -0.09114
  TRIB1 Log2FC: -0.4986
  ZBTB46 Log2FC: 0.4368
  ZFP36L1 Log2FC: 1.334
[1]; [3]
  deregulated genes (RNA-seq): 1278
  down-regulated genes (RNA-seq): 409
  up-regulated genes (RNA-seq): 869
[2]
  deregulated genes (RNA-seq): 3750
  down-regulated genes (RNA-seq): 2024
  up-regulated genes (RNA-seq): 1726
  ABI1 Log2FC: 1.097
  CBFB Log2FC: 0.03944
  CCR2 Log2FC: -0.7456
  CD44 Log2FC: 0.03189
  CDK6 Log2FC: -1.439
  CEBPB Log2FC: 0.5234
  CSF3R Log2FC: -1.197
  CTNNBIP1 Log2FC: 0.1531
  ELANE Log2FC: -2.561
  EP300 Log2FC: 0.4661
  FLI1 Log2FC: -0.175
  FUT4 Log2FC: -1.092
  GATA2 Log2FC: 2.602
  HCLS1 Log2FC: -0.435
  ITGA4 Log2FC: -1.164
  ITGAM Log2FC: 1.457
  ITGB1 Log2FC: 0.9913
  ITGB2 Log2FC: -0.1511
  JUN Log2FC: 1.4026
  MPO Log2FC: -2.925
  MYC Log2FC: -2.637
  NFE2 Log2FC: -0.1388
  PIR Log2FC: 0.9099
  RUNX1 Log2FC: 0.04441
  SOX4 Log2FC: 0.5561
  SPI1 Log2FC: -1.467
  TESC Log2FC: -0.171
  TRIB1 Log2FC: -0.1972
  ZBTB46 Log2FC: -0.02647
  ZFP36L1 Log2FC: 4.387
[2]; [4]
  deregulated genes (RNA-seq): 2520
  down-regulated genes (RNA-seq): 1183
  up-regulated genes (RNA-seq): 1337
